Key:
[1] = target: T1, human recombinant adrenergic α1D receptor (Homo sapiens, UniProt P25100); assay: Adrenergic alpha1D radioligand binding ([3H]Prozosin); details: compound at 1 μM; read-out: Adrenergic (1 μM) α1D, percent inhibition of specific binding
T1 construct: expressed in transfected cells; host or cells: HEK-293 cells
T1 sequence (P25100 1-572): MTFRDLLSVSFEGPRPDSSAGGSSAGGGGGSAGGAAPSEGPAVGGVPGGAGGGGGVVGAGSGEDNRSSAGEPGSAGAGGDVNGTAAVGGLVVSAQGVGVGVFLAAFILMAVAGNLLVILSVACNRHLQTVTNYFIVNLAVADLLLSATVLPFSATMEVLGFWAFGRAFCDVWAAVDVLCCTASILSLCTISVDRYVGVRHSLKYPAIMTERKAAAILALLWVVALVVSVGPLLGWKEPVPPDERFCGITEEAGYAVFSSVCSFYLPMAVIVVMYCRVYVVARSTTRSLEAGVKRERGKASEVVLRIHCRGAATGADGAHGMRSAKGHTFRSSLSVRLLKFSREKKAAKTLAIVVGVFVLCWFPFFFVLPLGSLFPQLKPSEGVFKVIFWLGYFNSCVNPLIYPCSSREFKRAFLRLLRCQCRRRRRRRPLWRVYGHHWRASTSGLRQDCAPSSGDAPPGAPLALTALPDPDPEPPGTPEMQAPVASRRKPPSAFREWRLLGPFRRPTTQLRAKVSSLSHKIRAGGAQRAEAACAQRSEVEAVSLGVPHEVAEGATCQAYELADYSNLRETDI
Description: To evaluate in radioligand binding assays the activity of compounds of the invention, human recombinant adrenergic α1D receptor expressed in human embryonic kidney (HEK-293) cells (Kenny, B. A. et al. Br. J. Pharmacol. 115(6):981, 1995) in a 50 mM Tris-HCl buffer, pH 7.4, was used. Compounds of invention were incubated with 0.6 nM [^3H]Prozosin for 60 min. at 25° C. Non-specific binding was estimated in the presence of 10 μM phentolamine. Receptor proteins were filtered and washed, the filters were then counted to determine [^3H]Prozosin specifically bound. Compounds were screened at 1 μM or lower, using 1% DMSO as vehicle. Biochemical assay results are presented as the percent inhibition of specific binding in Table 5.

[2] = target: T2, human recombinant adrenergic α2A receptor (Homo sapiens, UniProt P08913); assay: Adrenergic alpha2A radioligand binding ([3H]MK-912); details: compound at 1 μM; read-out: Adrenergic (1 μM) α2A, percent inhibition of specific binding
T2 construct: expressed in transfected cells; host or cells: insect Sf9 cells
T2 sequence (P08913 1-465): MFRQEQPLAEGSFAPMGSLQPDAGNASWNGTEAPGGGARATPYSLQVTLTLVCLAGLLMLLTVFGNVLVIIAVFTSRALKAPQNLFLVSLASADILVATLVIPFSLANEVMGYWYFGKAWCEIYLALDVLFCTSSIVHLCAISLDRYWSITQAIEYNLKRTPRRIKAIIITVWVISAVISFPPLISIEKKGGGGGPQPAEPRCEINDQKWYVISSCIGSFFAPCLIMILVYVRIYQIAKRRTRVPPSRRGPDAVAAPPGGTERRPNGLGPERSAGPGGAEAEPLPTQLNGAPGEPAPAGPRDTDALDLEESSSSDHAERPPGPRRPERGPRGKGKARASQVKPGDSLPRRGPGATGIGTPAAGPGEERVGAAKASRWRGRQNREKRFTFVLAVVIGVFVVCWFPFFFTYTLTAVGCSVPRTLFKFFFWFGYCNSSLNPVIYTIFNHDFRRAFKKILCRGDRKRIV
Description: To evaluate in radioligand binding assays the activity of compounds of the invention, human recombinant adrenergic α2A receptor expressed in insect Sf9 cells (Uhlen S et al. J Pharmacol Exp Ther. 271:1558, 1994) in a modified Tris-HCl buffer (50 mM Tris-HCl, pH 7.4, 12.5 mM MgCl2, 2 mM EDTA) was used. Compounds of invention were incubated with 1 nM [^3H]MK-912 for 60 min. at 25° C. MK912 is (2S-trans)-1,3,4,5′,6,6′,7,12b-octahydro-1′,3′-dimethyl-spiro[2 h-benzofuro [2,3-a]quinolizine-2,4′ (1′H)-pyrimidin]-2′ (3′H)-one hydrochloride Non-specific binding was estimated in the presence of 10 μM WB-4101 (2-(2,6-Dimethoxyphenoxyethyl)aminomethyl-1,4-benzodioxane hydrochloride). Receptor proteins were filtered and washed, the filters were then counted to determine [^3H]MK-912 specifically bound. Compounds were screened at 1 μM or lower, using 1% DMSO as vehicle. Biochemical assay results are presented as the percent inhibition of specific binding in Table 5.

[3] = target: T3, human recombinant serotonin (5-Hydroxytryptamine) 5-HT2A receptor (Homo sapiens, UniProt P28223); assay: Serotonin 5-HT2A radioligand binding ([3H]Ketanserin); details: compound at 1 μM; read-out: Serotonin (1 μM) 5-HT2A, percent inhibition of specific binding
T3 construct: expressed in transfected cells; host or cells: CHO-K1 cells
In short: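 Percent inhibition of specific [3H]ketanserin (0.5 nM) binding, filtration read-out, with compounds at ≤1 μM (1% DMSO vehicle). Receptor source: recombinant human 5-HT2A in CHO-K1 cells, 50 mM Tris-HCl pH 7.4, 60 min, 25 °C; 1 μM mianserin gives nonspecific binding.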

[4] = target: T4, human recombinant serotonin (5-Hydroxytryptamine) 5-HT6 receptor (Homo sapiens, UniProt P50406); assay: Serotonin 5-HT6 radioligand binding ([3H]LSD); details: compound at 1 μM; read-out: Serotonin (1 μM) 5-HT6, percent inhibition of specific binding
T4 construct: expressed in transfected cells; host or cells: human HeLa cells
In short: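 Human recombinant 5-HT6 receptor from HeLa cells incubated with 1.5 nM [3H]LSD for 120 min at 37° C in 50 mM Tris-HCl pH 7.4, 150 mM NaCl, 2 mM ascorbic acid, 0.001% BSA. Nonspecific binding defined with 5 μM serotonin; bound ligand counted after filtration.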

T4 sequence (P50406 whole entry): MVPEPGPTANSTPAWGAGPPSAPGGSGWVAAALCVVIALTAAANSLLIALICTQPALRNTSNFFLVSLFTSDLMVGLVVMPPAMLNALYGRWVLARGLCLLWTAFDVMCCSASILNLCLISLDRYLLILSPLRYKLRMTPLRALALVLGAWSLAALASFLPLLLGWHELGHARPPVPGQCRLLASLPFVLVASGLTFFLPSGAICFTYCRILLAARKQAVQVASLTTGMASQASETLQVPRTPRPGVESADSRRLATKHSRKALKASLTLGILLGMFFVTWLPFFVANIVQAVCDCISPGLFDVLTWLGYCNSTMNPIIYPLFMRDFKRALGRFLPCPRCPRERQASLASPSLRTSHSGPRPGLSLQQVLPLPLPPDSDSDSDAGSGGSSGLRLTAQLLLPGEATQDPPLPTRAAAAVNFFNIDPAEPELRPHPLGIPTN
T3 sequence (P28223 whole entry): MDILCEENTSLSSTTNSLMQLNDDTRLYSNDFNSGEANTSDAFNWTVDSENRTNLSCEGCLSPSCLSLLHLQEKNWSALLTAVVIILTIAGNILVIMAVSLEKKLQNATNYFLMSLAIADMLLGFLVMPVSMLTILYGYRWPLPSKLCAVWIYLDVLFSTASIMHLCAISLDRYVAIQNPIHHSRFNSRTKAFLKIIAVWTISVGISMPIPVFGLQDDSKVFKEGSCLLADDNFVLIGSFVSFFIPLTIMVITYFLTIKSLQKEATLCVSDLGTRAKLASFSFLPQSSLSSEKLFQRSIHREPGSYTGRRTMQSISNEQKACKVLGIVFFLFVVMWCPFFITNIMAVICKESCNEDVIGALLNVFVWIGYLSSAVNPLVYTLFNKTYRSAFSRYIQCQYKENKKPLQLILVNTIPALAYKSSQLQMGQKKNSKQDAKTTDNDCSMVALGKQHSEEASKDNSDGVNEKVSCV

Structure (SMILES)	inhibition at 1 µM [1]	inhibition at 1 µM [2]	inhibition at 1 µM [3]	inhibition at 1 µM [4]
Cc1ccc2c(c1)c1c(n2/C=C/c2ccc(F)cc2)CCN(C)CC1 [Compound No. 39, 6-(4-fluorostyryl)-1,2,3,4,5,6-hexahydro-3,9-dimethylazepino[4,5-b]indole]	99%	98%	98%	103%
CN1CCc2c(n(CC(O)c3ccccc3F)c3ccc(Cl)cc23)CC1 (stereo not drawn) [Compound No. 40, 2-(9-chloro-2,3,4,5-tetrahydro-3-methylazepino[4,5-b]indol-6(1H)-yl)-1-(2-fluorophenyl)ethanol]	64%	96%	97%	101%
Cc1ccc2c(c1)c1c(n2CC(O)c2ccccc2F)CCN(C)CC1 (stereo not drawn) [Compound No. 41, 1-(2-fluorophenyl)-2-(2,3,4,5-tetrahydro-3,9-dimethylazepino[4,5-b]indol-6(1H)-yl)ethanol]	75%	95%	99%	101%
CN1CCc2c(n(CC(O)c3ccncc3)c3ccc(Cl)cc23)CC1 (stereo not drawn) [Compound No. 42, 2-(9-chloro-2,3,4,5-tetrahydro-3-methylazepino[4,5-b]indol-6(1H)-yl)-1-(pyridin-4-yl)ethanol]	73%	87%	95%	73%
Cc1ccc2c(c1)c1c(n2CC(O)c2ccncc2)CCN(C)CC1 (stereo not drawn) [Compound No. 43, 2-(2,3,4,5-tetrahydro-3,9-dimethylazepino[4,5-b]indol-6(1H)-yl)-1-(pyridin-4-yl)ethanol]	70%	78%	93%	48%
Cc1ccc2c(c1)c1c(n2CC(=O)Nc2ccc(F)cc2)CCN(C)CC1 [Compound No. 44, N-(4-fluorophenyl)-2-(2,3,4,5-tetrahydro-3,9-dimethylazepino[4,5-b]indol-6(1H)-yl)acetamide]	10%	1%	17%	1%
Cc1ccc2c(c1)c1c(n2CC(=O)N2CCCC2)CCN(C)CC1 [Compound No. 45, 2-(2,3,4,5-tetrahydro-3,9-dimethylazepino[4,5-b]indol-6(1H)-yl)-1-(pyrrolidin-1-yl)ethanone]	1%	-9%	22%	2%
Cc1ccc(CCn2c3c(c4cc(Cl)ccc42)CCN(C)CC3)cc1 [Compound No. 46, 9-chloro-3-methyl-6-(4-methylphenethyl)-1,2,3,4,5,6-hexahydroazepino[4,5-b]indole]	88%	100%	100%	98%
COc1ccc(C(O)Cn2c3c(c4cc(Cl)ccc42)CCN(C)CC3)cc1 (stereo not drawn) [Compound No. 47, 2-(9-chloro-2,3,4,5-tetrahydro-3-methylazepino[4,5-b]indol-6(1H)-yl)-1-(4-methoxyphenyl)ethanol]	97%	97%	99%	77%
COc1ccc(C(O)Cn2c3c(c4cc(C)ccc42)CCN(C)CC3)cc1 (stereo not drawn) [Compound No. 48, 2-(2,3,4,5-tetrahydro-3,9-dimethylazepino[4,5-b]indol-6(1H)-yl)-1-(4-methoxyphenyl) ethanol]	95%	98%	97%	73%
COc1ccc(C(O)Cn2c3c(c4cc(Cl)ccc42)CCN(C)CC3)c(F)c1 (stereo not drawn) [Compound No. 49, 2-(9-chloro-2,3,4,5-tetrahydro-3-methylazepino[4,5-b]indol-6(1H)-yl)-1-(2-fluoro-4-methoxyphenyl) ethanol]	71%	96%	97%	88%
COc1ccc(C(O)Cn2c3c(c4cc(C)ccc42)CCN(C)CC3)c(F)c1 (stereo not drawn) [Compound No. 50, 1-(2-fluoro-4-methoxyphenyl)-2-(2,3,4,5-tetrahydro-3,9-dimethylazepino[4,5-b]indol-6(1H)-yl)ethanol]	84%	94%	98%	88%
CN1CCc2c(n(CC(O)c3ccc(F)cc3)c3ccc(Cl)cc23)CC1 (stereo not drawn) [Compound No. 51, 2-(9-chloro-2,3,4,5-tetrahydro-3-methylazepino[4,5-b]indol-6(1H)-yl)-1-(4-fluorophenyl) ethanol]	85%	98%	97%	94%
Cc1ccc2c(c1)c1c(n2CC(O)c2ccc(F)cc2)CCN(C)CC1 (stereo not drawn) [Compound No. 52, 1-(4-fluorophenyl)-2-(2,3,4,5-tetrahydro-3,9-dimethylazepino[4,5-b]indol-6(1H)-yl)ethanol]	91%	97%	97%	84%
CN1CCc2c(n(CC(=O)N3CCCC3)c3ccc(Cl)cc23)CC1 [Compound No. 53, 2-(9-chloro-2,3,4,5-tetrahydro-3-methylazepino[4,5-b]indol-6(1H)-yl)-1-(pyrrolidin-1-yl)ethanone]	13%	1%	41%	-1%
Cc1ccc2c(c1)c1c(n2CC(=O)NC(C)C)CCN(C)CC1 [Compound No. 54, 2-(2,3,4,5-tetrahydro-3,9-dimethylazepino[4,5-b]indol-6(1H)-yl)-N-isopropylacetamide]	-1%	5%	1%	-10%
Cc1ccc2c(c1)c1c(n2CC(=O)OC2CCCC2)CCN(C)CC1 [Compound No. 55, Cyclopentyl-2-(2,3,4,5-tetrahydro-3,9-dimethylazepino[4,5-b]indol-6(1H)-yl)acetate]	8%	12%	-2%	4%
CN1CCc2c(n(CCc3ccccc3)c3ccc(Cl)cc23)CC1 [Compound No. 56, 9-chloro-1,2,3,4,5,6-hexahydro-3-methyl-6-phenethylazepino[4,5-b]indole]	83%	95%	97%	104%
